Test results published in ChEMBL document CHEMBL1158147, “Ultraviolet-mediated cytotoxic activity of phenylheptatriyne from Bidens pilosa L” (J Nat Prod, 1979).
Active and inactive are the calls of the source. The calls are words filed in the database; no cut-off is given here.

What was measured:
Bacillus subtilis [1] = assay: Phototoxicity against Bacillus subtilis at 5 ug/disk in presence of long wave UV light; format: functional, organism-based
Bacillus subtilis [2] = assay: Phototoxicity against Bacillus subtilis at 5 ug/disk in dark; format: functional, organism-based
Kocuria rosea [3] = assay: Phototoxicity against Micrococcus roseus UBC 289 at 5 ug/disk in presence of cool-white fluorescent light; format: functional, organism-based
Kocuria rosea [4] = assay: Phototoxicity against Micrococcus roseus UBC 289 at 5 ug/disk in dark; format: functional, organism-based
[5] = tested on: Staphylococcus epidermidis; assay: Phototoxicity against Staphylococcus albus at 5 ug/disk in presence of cool-white fluorescent light; format: functional, organism-based
[6] = tested on: Staphylococcus epidermidis; assay: Phototoxicity against Staphylococcus albus at 5 ug/disk in dark; format: functional, organism-based
Escherichia coli [7] = assay: Phototoxicity against Escherichia coli at 5 ug/disk in presence of long wave UV light; format: functional, organism-based
Escherichia coli [8] = assay: Phototoxicity against Escherichia coli at 5 ug/disk in presence of cool-white fluorescent light; format: functional, organism-based
Escherichia coli [9] = assay: Phototoxicity against Escherichia coli at 5 ug/disk in dark; format: functional, organism-based
Proteus mirabilis [10] = assay: Phototoxicity against Proteus mirabilis UBC 5 at 5 ug/disk in presence of long wave UV light; format: functional, organism-based
Proteus mirabilis [11] = assay: Phototoxicity against Proteus mirabilis UBC 5 at 5 ug/disk in presence of cool-white fluorescent light; format: functional, organism-based
Pseudomonas fluorescens [12] = assay: Phototoxicity against Pseudomonas fluorescens at 5 ug/disk in presence of long wave UV light; format: functional, organism-based
Pseudomonas fluorescens [13] = assay: Phototoxicity against Pseudomonas fluorescens at 5 ug/disk in presence of cool-white fluorescent light; format: functional, organism-based
Candida albicans [14] = assay: Phototoxicity against Candida albicans at 5 ug/disk in presence of cool-white fluorescent light; format: functional, organism-based
Candida albicans [15] = assay: Phototoxicity against Candida albicans at 5 ug/disk in dark; format: functional, organism-based
Saccharomyces cerevisiae [16] = assay: Phototoxicity against Saccharomyces cerevisiae at 2.5 ug/disk after UV irradiation for 30 mins; format: functional, organism-based
Rhodotorula mucilaginosa [17] = assay: Phototoxicity against Rhodotorula rubra Y96 at 5 ug/disk in presence of long wave UV light; format: functional, organism-based
Candida albicans [18] = assay: Phototoxicity against Candida albicans at 2.5 ug/disk after UV irradiation for 180 mins; format: functional, organism-based
Rhodotorula mucilaginosa [19] = assay: Phototoxicity against Rhodotorula rubra Y96 at 5 ug/disk in dark; format: functional, organism-based
Saccharomyces cerevisiae [20] = assay: Phototoxicity against Saccharomyces cerevisiae at 5 ug/disk in presence of long wave UV light; format: functional, organism-based
Saccharomyces cerevisiae [21] = assay: Phototoxicity against Saccharomyces cerevisiae at 5 ug/disk in presence of cool-white fluorescent light; format: functional, organism-based
Sporobolomyces [22] = assay: Phototoxicity against Sporobolomyces sp. Y138 at 5 ug/disk in presence of long wave UV light; format: functional, organism-based
Sporobolomyces [23] = assay: Phototoxicity against Sporobolomyces sp. Y138 at 5 ug/disk in presence of cool-white fluorescent light; format: functional, organism-based
Torula [24] = assay: Phototoxicity against Torula sp. at 5 ug/disk in presence of long wave UV light; format: functional, organism-based
Torula [25] = assay: Phototoxicity against Torula sp. at 5 ug/disk in presence of cool-white fluorescent light; format: functional, organism-based
Torula [26] = assay: Phototoxicity against Torula sp. at 5 ug/disk in dark; format: functional, organism-based
Fusarium sp. [27] = assay: Phototoxicity against Fusarium sp. at 5 ug/disk in presence of long wave UV light; format: functional, organism-based
Fusarium sp. [28] = assay: Phototoxicity against Fusarium sp. at 5 ug/disk in presence of cool-white fluorescent light; format: functional, organism-based
Fusarium sp. [29] = assay: Phototoxicity against Fusarium sp. at 5 ug/disk in dark; format: functional, organism-based
Microsporum canis = assay: Phototoxicity against Microsporum canis at 5 ug/disk in presence of long wave UV light; format: functional, organism-based
Paraphyton cookei [30] = assay: Phototoxicity against Microsporum cookei at 5 ug/disk in presence of long wave UV light; format: functional, organism-based
Paraphyton cookei [31] = assay: Phototoxicity against Microsporum cookei at 5 ug/disk in presence of cool-white fluorescent light; format: functional, organism-based
Paraphyton cookei [32] = assay: Phototoxicity against Microsporum cookei at 5 ug/disk in dark; format: functional, organism-based
Nannizzia gypsea [33] = assay: Phototoxicity against Microsporum gypseum at 5 ug/disk in presence of long wave UV light; format: functional, organism-based
Nannizzia gypsea [34] = assay: Phototoxicity against Microsporum gypseum at 5 ug/disk in presence of cool-white fluorescent light; format: functional, organism-based
Nannizzia gypsea [35] = assay: Phototoxicity against Microsporum gypseum at 5 ug/disk in dark; format: functional, organism-based
[36] = tested on: Trichophyton mentagrophytes; assay: Phototoxicity against Trichophyton mentagrophytes at 5 ug/disk in presence of long wave UV light; format: functional, organism-based
[37] = tested on: Trichophyton mentagrophytes; assay: Phototoxicity against Trichophyton mentagrophytes at 5 ug/disk in dark; format: functional, organism-based
Saccharomyces cerevisiae [38] = assay: Effect on Saccharomyces cerevisiae assessed as viable cell count at 10 ug/ml in petroleum ether after 1.33 Joules/cm'2 UV irradiation for 15 mins; format: functional
Saccharomyces cerevisiae [39] = assay: Effect on Saccharomyces cerevisiae assessed as viable cell count at 10 ug/ml in petroleum ether after 2.67 Joules/cm'2 UV irradiation for 30 mins; format: functional
Saccharomyces cerevisiae [40] = assay: Effect on Saccharomyces cerevisiae assessed as viable cell count at 10 ug/ml in petroleum ether after 5.33 Joules/cm'2 UV irradiation for 60 mins; format: functional
Saccharomyces cerevisiae [41] = assay: Effect on Saccharomyces cerevisiae assessed as viable cell count at 10 ug/ml in petroleum ether in dark after 15 mins; format: functional
Saccharomyces cerevisiae [42] = assay: Effect on Saccharomyces cerevisiae assessed as viable cell count at 10 ug/ml in petroleum ether in dark after 60 mins; format: functional
Saccharomyces cerevisiae [43] = assay: Effect on Saccharomyces cerevisiae assessed as viable cell count at 10 ug/ml in petroleum ether in dark after 180 mins; format: functional
[44] = Effect on human skin fibroblast cells assessed as viable cell count at 10 ug/ml in petroleum ether after 1.78 Joules/cm UV irradiation for 20 mins by trypan blue exclusion method; format: ADME, cell-based; settings: read-out: Activity
[45] = Effect on human skin fibroblast cells assessed as viable cell count at 10 ug/ml in petroleum ether after 8.00 Joules/cm UV irradiation for 90 mins by trypan blue exclusion method; format: ADME, cell-based; settings: read-out: Activity
[46] = Effect on human skin fibroblast cells assessed as viable cell count at 10 ug/ml in petroleum ether after 10.67 Joules/cm UV irradiation for 120 mins by trypan blue exclusion method; format: ADME, cell-based; settings: read-out: Activity
[47] = Effect on human skin fibroblast cells assessed as viable cell count at 10 ug/ml in petroleum ether in dark after 60 mins by trypan blue exclusion method; format: ADME, cell-based; settings: read-out: Activity
Saccharomyces cerevisiae [48] = assay: Phototoxicity against Saccharomyces cerevisiae at 2.5 ug/disk after UV irradiation for 15 mins; format: functional; settings: light or radiation study, 0.25 h, read-out: IZ
DNA [49] = assay: Photochemical activity against denatured calf thymus DNA at 10 ug after UV irradiation with 10.67 Joules/cm'2 for 120 mins by hyperchromicity test; format: nucleic-acid assay; settings: Bos taurus; further: unit not given here
DNA [50] = assay: Photochemical activity against denatured calf thymus DNA at 10 ug after UV irradiation with 16.00 Joules/cm'2 for 180 mins by hyperchromicity test; format: nucleic-acid assay; settings: Bos taurus
DNA [51] = assay: Photochemical activity against denatured calf thymus DNA at 10 ug in dark by hyperchromicity test; format: nucleic-acid assay; settings: Bos taurus; further: unit not given here
DNA [52] = assay: Photochemical activity against denatured calf thymus DNA at 10 ug in dark after 60 mins by hyperchromicity test; format: nucleic-acid assay; settings: Bos taurus; further: unit not given here
DNA [53] = assay: Photochemical activity against denatured calf thymus DNA at in dark after 120 mins by hyperchromicity test; format: nucleic-acid assay; settings: Bos taurus; further: unit not given here
Candida albicans [54] = assay: Phototoxicity against Candida albicans at 2.5 ug/disk after UV irradiation for 30 mins; format: functional, organism-based

For `CC#CC#CC#Cc1ccccc1` [PHENYLHEPTATRIYNE], the Activity (Bacillus subtilis [1]) was “Active”, the Activity (Bacillus subtilis [2]) was “inactive” and the Activity (Kocuria rosea [3]) was “Active”. The Activity (Kocuria rosea [4]) was “inactive”, the Activity [5] was “Active” and the Activity [6] was “inactive”. The Activity (Escherichia coli [7]) was “Active”, the Activity (Escherichia coli [8]) was “inactive” and the Activity (Escherichia coli [9]) was “inactive”. For the same compound, the Activity (Proteus mirabilis [10]) was “Active”, the Activity (Proteus mirabilis [11]) was “inactive” and the Activity (Pseudomonas fluorescens [12]) was “inactive”. For the same compound, the Activity (Pseudomonas fluorescens [13]) was “inactive”, the Activity (Candida albicans [14]) was “Active” and the Activity (Candida albicans [15]) was “inactive”. For the same compound, the Activity (Saccharomyces cerevisiae [16]) was “inactive”, the Activity (Rhodotorula mucilaginosa [17]) was “Active” and the Activity (Candida albicans [18]) was “inactive”. For the same compound, the Activity (Rhodotorula mucilaginosa [19]) was “inactive”, the Activity (Saccharomyces cerevisiae [20]) was “Active” and the Activity (Saccharomyces cerevisiae [21]) was “Active”. The Activity (Sporobolomyces [22]) was “Active”, the Activity (Sporobolomyces [23]) was “Active” and the Activity (Torula [24]) was “Active”. The Activity (Torula [25]) was “inactive”, the Activity (Torula [26]) was “inactive” and the Activity (Fusarium sp. [27]) was “Active”. For the same compound, the Activity (Fusarium sp. [28]) was “Active”, the Activity (Fusarium sp. [29]) was “inactive” and the Activity (Microsporum canis) was “Active”. For the same compound, the Activity (Paraphyton cookei [30]) was “Active”, the Activity (Paraphyton cookei [31]) was “Active” and the Activity (Paraphyton cookei [32]) was “inactive”. The Activity (Nannizzia gypsea [33]) was “Active”, the Activity (Nannizzia gypsea [34]) was “Active” and the Activity (Nannizzia gypsea [35]) was “inactive”. For the same compound, the Activity [36] was “Active”, the Activity [37] was “inactive” and the Activity (Saccharomyces cerevisiae [38]) was 2.57. It also gave an Activity (Saccharomyces cerevisiae [39]) of 0.02, an Activity (Saccharomyces cerevisiae [40]) of 0 and an Activity (Saccharomyces cerevisiae [41]) of 24.2. It also gave an Activity (Saccharomyces cerevisiae [42]) of 48.3, an Activity (Saccharomyces cerevisiae [43]) of 53.5 and a viability at 20 min, 10 ug/ml [44] of 95%. For the same compound, the viability at 1.5 h, 10 ug/ml [45] was 0%, the viability at 2 h, 10 ug/ml [46] was 0% and the viability at 1 h, 10 ug/ml [47] was 100%. For the same compound, the zone of inhibition at 2.5 µg/disc (Saccharomyces cerevisiae [48]) was 10 mm, the Activity (DNA [49]) was 0.01 and the Activity (DNA [50]) was 0. For the same compound, the Activity (DNA [51]) was 0.17, the Activity (DNA [52]) was 0.18 and the Activity (DNA [53]) was 0.19. For the same compound, the Activity (Candida albicans [54]) was “inactive”.
